Source: patent publication US8455480B2, “Active agent combinations having insecticidal and acaricidal properties” (Bayer Cropscience AG, priority 2007, dated 2013)

Tests used:
[1] = system: Phaedon cochleariae larvae; assay: Phaedon cochleariae larvae test (sprayed cabbage leaves); conditions: for Destruction in % after 2 d: single active substance
[2] = system: Myzus persicae; assay: Myzus persicae test (spray on infested cabbage leaves); format: in vivo; conditions: single active substance
[3] = Phaedon cochleariae, in Brassica oleracea, 144 h, read-out: Destruction in % after 6 d

Row | Structure (SMILES) | pest or weed control at 4 g/ha [1, 3] [%] | Destruction in % after 1 d ([2]; 0.16 g/ha) [%] | Destruction in % after 6 d ([2]; 0.16 g/ha) [%] | pest or weed control at 100 g/ha [1, 3] [%] | also measured
1 | C/C(=N\C#N)N(C)Cc1ccc(Cl)nc1 [Acetamiprid] | – | – | – | – | Destruction in % after 2 d ([1]; 4 g/ha): 0%; Destruction in % after 6 d ([2]; 0.032 g/ha): 0%
2 | CN/C(=N\[N+](=O)[O-])NCc1cnc(Cl)s1 [Clothianidin] | 33 | 0 | 10 | – | –
3 | O=C1C=C(N(CCF)Cc2ccc(Cl)nc2)CO1 [Compound (I-4), 4-{[(6-chloropyrid-3-yl)methyl](2-fluoroethyl)amino}furan-2(5H)-one] | – | – | – | 0 | Destruction in % after 1 d ([2]; 4 g/ha): 50%; Destruction in % after 6 d ([2]; 4 g/ha): 70%
4 | O=C1C=C(N(Cc2ccc(Cl)nc2)CC(F)F)CO1 [Compound (I-5), 4-{[(6-chloropyrid-3-yl)methyl](2,2-difluoroethyl)amino}furan-2(5H)-one] | – | – | – | 50 | pest or weed control at 20 g/ha [1, 3]: 0%; Destruction in % after 2 d ([1]; 100 g/ha): 33%; Destruction in % after 6 d ([2]; 0.8 g/ha): 30%
5 | CN(Cc1cnc(Cl)c(F)c1)C1=CC(=O)OC1 [Compound (I-6), 4-{[(6-chloro-5-fluoropyrid-3-yl)methyl](methyl)amino}furan-2(5H)-one] | – | – | – | 0 | Destruction in % after 2 d ([1]; 100 g/ha): 0%
6 | CN/C(=N\[N+](=O)[O-])NCC1CCOC1 (stereo not drawn) [Dinotefuran] | 0 | – | – | – | –
7 | O=[N+]([O-])/N=C1\NCCN1Cc1ccc(Cl)nc1 [Imidacloprid] | 0 | 20 | – | – | –
8 | N#C/N=C1\SCCN1Cc1ccc(Cl)nc1 [Thiacloprid] | 17 | 20 | 0 | – | Destruction in % after 2 d ([1]; 4 g/ha): 0%
9 | CN1COCN(Cc2cnc(Cl)s2)/C1=N/[N+](=O)[O-] [Thiamethoxam] | 17 | – | 30 | – | Destruction in % after 6 d ([2]; 0.032 g/ha): 0%
